# From PMC7897990, “TriTOX: A novel Trichomonas vaginalis assay platform for high-throughput screening of compound libraries” (International Journal for Parasitology: Drugs and Drug …, 2021)
# Read-outs that look alike come from different tables or passages of the source.
# Test system: Trichomonas vaginalis G3 trophozoites
# [1] = HTS, parasite screen at 1 µg/mL, replicate 1
# [2] = HTS, parasite screen at 1 µg/mL, replicate 1, raw absorbance
# [3] = HTS, parasite screen at 1 µg/mL, replicate 2
# [4] = HTS, parasite screen at 1 µg/mL, replicate 2, raw absorbance
# [5] = 384-well, 25 μL, 10,000 cells/mL, 48 h, biological duplicates; hit = >50% inhibition
Structure (SMILES),T.vaginalis_%inb_Rep1 [1] [%],T.vaginalis_Absorbance_Rep1 [2],T.vaginalis_%inb_Rep2 [3] [%],T.vaginalis_Absorbance_Rep2 [4],T. vaginalis HTS result in words [5],T.vaginalis_%inb_Rep1 (replicate 1; parasite screen at 1 µg/mL) [%],T.vaginalis_%inb_Rep2 (replicate 2; parasite screen at 1 µg/mL) [%],"T.vaginalis_%inb_Rep1 (parasite screen at 1 µg/mL, replicate 1) [%]","T.vaginalis_%inb_Rep2 (parasite screen at 1 µg/mL, replicate 2) [%]"
Cc1c2c(c(O)c3c(O)ccc(Cl)c13)C(=O)C1(O)C(O)=C(C(N)=O)C(=O)C(N(C)C)C1C2.Cl (stereo not shown),10.90,0.917,9.56,0.784,–,–,–,–,–
"CN[C@@H]1C[C@H]2O[C@@](C)([C@@H]1OC)n1c3ccccc3c3c4c(c5c6ccccc6n2c5c31)C(=O)NC4=O [7-oxostaurosporine, reference compound]",–,–,–,–,active analogues,–,–,–,–
"CO[C@H]1/C=C\C=C(/C)C(=O)NC2=CC(=O)C(NCCN(C)C)=C(C[C@@H](C)C[C@H](OC)[C@H](O)[C@@H](C)/C=C(\C)[C@@H]1OC(N)=O)C2=O [17-DAAG, 17-dimethylaminoethylamino-17-demethoxygeldanamycin, reference compound]",–,–,–,–,partial hits,–,–,–,–
COc1ccc(/C=C/C(=O)O)cc1O [BIA-I1729],–,–,–,–,–,11.16,13.98,–,–
CN(C)[C@@H]1C(O)=C(C(N)=O)C(=O)[C@@]2(O)C(O)=C3C(=O)c4c(O)cccc4[C@@](C)(O)[C@H]3C[C@@H]12 [BIA-T1334],–,–,–,–,–,–,–,9.28,5.48
CC1=CCCC(C)C(O)C(C)C(O)CCC=CC(C)C(O)C=CC(C)C(O)C(C)=CC(O[C@H]2O[C@H](CO)[C@@H](O)[C@H](O)[C@@H]2O)C(O)CC(O)CC(O)CC(O)C(C)C(O)C(C)C(O)CC(O)CC(O)C=CCC(C(C)C(O)CCCN)OC1=O (stereo partly shown) [Desertomycin A],12.39,0.939,12.87,0.798,–,–,–,–,–
CC(=O)c1c(O)cc(O)c(C(C)=O)c1O [Diacetylphloroglucinol],9.32,0.882,10.70,0.768,–,–,–,–,–
O=C(O)C1CSC(c2ccccc2O)=N1 (stereo not shown) [Dihydroaeruginoic acid],11.15,0.916,12.87,0.798,–,–,–,–,–
CC(C)CCC[C@@H](C)[C@@H]1CC[C@]2(C)C3=C(CC[C@@]12C)[C@@]1(C)CC[C@H](O)C(C)(C)[C@@H]1CC3 [Dihydroeuphol],14.92,0.986,10.05,0.759,–,–,–,–,–
COC1C(OC(N)=O)C(O)C(Oc2ccc3c(O)c(NC(=O)c4ccc(O)c(CCC(C)C)c4)c(=O)oc3c2C)OC1(C)C (stereo not shown) [Dihydronovobiocin],2.80,0.761,4.84,0.687,–,–,–,–,–
CC[C@]1(C)C[C@@H](OC(=O)CO)[C@]2(C)[C@H](C)CC[C@]3(CCC(=O)[C@H]32)[C@@H](C)[C@@H]1O [Dihydropleuromutilin],14.27,0.974,13.23,0.803,–,–,–,–,–
CC[C@H]1CCC[C@H](O)[C@@H](C)C(=O)C2=C[C@H]3[C@@H]4C[C@H](O)C[C@H]4CC[C@H]3[C@@H]2CC(=O)O1 [Dihydrospinosyn A aglycone],13.89,0.967,12.58,0.794,–,–,–,–,–
"COc1cccc2nc3c(OC)cccc3nc12 [Dimethoxyphenazine, 1,6-]",12.87,0.948,14.10,0.815,–,–,–,–,–
CC1=C[C@H]2C(=O)O[C@H]3C[C@@H](C/C=C(\C)[C@@H](O)[C@@H](C)/C=C/C=C4\CO[C@H]([C@@H]1O)[C@@]42O)O[C@@]1(C=C[C@H](C)[C@@H](C2CCCCC2)O1)C3 [Doramectin aglycone],13.62,0.962,12.44,0.792,–,–,–,–,–
CO[C@H]1C[C@H](O[C@@H]2/C(C)=C/C[C@@H]3C[C@@H](C[C@]4(C=C[C@H](C)[C@@H](C5CCCCC5)O4)O3)OC(=O)[C@@H]3C=C(C)[C@@H](O)[C@H]4OC/C(=C\C=C\[C@@H]2C)[C@]43O)O[C@@H](C)[C@@H]1O [Doramectin monosaccharide],13.89,0.967,12.80,0.797,–,–,–,–,–
"CO[C@H]1C[C@H](O[C@H]2[C@H](C)O[C@@H](O[C@@H]3/C(C)=C/C[C@@H]4C[C@@H](C[C@]5(C=C[C@H](C)[C@@H](C6CCCCC6)O5)O4)OC(=O)C4=C[C@H](C)[C@@H](O)[C@H]5OC/C(=C\C=C[C@@H]3C)[C@@]45O)C[C@@H]2OC)O[C@@H](C)[C@@H]1O [Doramectin, delta2-]",13.79,0.965,15.04,0.828,–,–,–,–,–

Structure (SMILES),T.vaginalis_%inb_Rep1 [1] [%],T.vaginalis_Absorbance_Rep1 [2],T.vaginalis_%inb_Rep2 [3] [%],T.vaginalis_Absorbance_Rep2 [4],T. vaginalis HTS result in words [5],T.vaginalis_%inb_Rep1 (replicate 1; parasite screen at 1 µg/mL) [%],T.vaginalis_%inb_Rep2 (replicate 2; parasite screen at 1 µg/mL) [%],"T.vaginalis_%inb_Rep1 (parasite screen at 1 µg/mL, replicate 1) [%]","T.vaginalis_%inb_Rep2 (parasite screen at 1 µg/mL, replicate 2) [%]"
"CO[C@H]1C[C@H](O[C@H]2[C@H](C)O[C@@H](O[C@@H]3/C(C)=C/C[C@@H]4C[C@@H](C[C@]5(C=C[C@H](C)[C@@H](C6CCCCC6)O5)O4)OC(=O)[C@H]4C=C(C)[C@@H](O)[C@H]5OC/C(=C\C=C\[C@@H]3C)[C@@]45O)C[C@@H]2OC)O[C@@H](C)[C@@H]1O [Doramectin, epi-]",16.13,1.02,15.52,0.877,–,–,–,–,–
CO[C@H]1C[C@H](O[C@H]2[C@H](C)O[C@@H](O[C@@H]3/C(C)=C/C[C@@H]4C[C@@H](C[C@]5(C=C[C@H](C)[C@@H](C6CCCCC6)O5)O4)OC(=O)[C@@H]4C=C(C)[C@@H](O)[C@H]5OC/C(=C\C=C\[C@@H]3C)[C@]54O)C[C@@H]2OC)O[C@@H](C)[C@@H]1O [Doramectin],11.20,0.917,11.21,0.775,–,–,–,–,–
CC1(C)CCC[C@]2(C)[C@@H](CO)C(CO)=CC[C@@H]12 [Drimendiol],13.84,0.966,11.64,0.781,–,–,–,–,–
CC1=CC[C@H]2C(C)(C)CCC[C@]2(C)[C@H]1CO [Drimenol],14.49,0.978,11.14,0.774,–,–,–,–,–
C=C1CC[C@H]2C(C)(C)CCC[C@]2(C)[C@H]1C[C@@]12C[C@H]3C(=O)N[C@@H](CC(C)C)C(=O)N3[C@@H]1Nc1ccccc12 [Drimentine A],15.46,0.996,4.92,0.688,–,–,–,–,–
C=C1CC[C@H]2C(C)(C)CCC[C@]2(C)[C@H]1C[C@@]12C[C@H]3C(=O)N4CCC=C4C(=O)N3[C@@H]1Nc1ccccc12 [Drimentine B],15.40,0.995,15.26,0.831,–,–,–,–,–
CCCCCC(=O)C(CCCC)c1oc(=O)c(CCCC)c(O)c1CCCC (stereo not shown) [Elasnin],13.95,0.968,11.14,0.774,–,–,–,–,–
COc1cc([C@H]2[C@@]3(O)[C@H](O)[C@H]4C[C@]2(O)[C@](O)(C(=O)O4)[C@H]3C(=O)c2ccccc2)oc(=O)c1 [Enterocin],13.08,0.96,12.38,0.828,–,–,–,–,–
Cc1c2c(c(O)c3c(O)cccc13)C(=O)C1(O)C(O)=C(C(N)=O)C(=O)C(N(C)C)C1C2.Cl (stereo not shown) [Epianhydrotetracycline hydrochloride],8.78,0.872,1.74,0.644,–,–,–,–,–
CN(C)C1C(=O)C(C(N)=O)=C(O)C2(O)C(=O)C3=C(O)c4c(O)ccc(Cl)c4C(C)(O)C3CC12.Cl (stereo not shown) [Epichlortetracycline hydrochloride],7.49,0.848,3.76,0.672,–,–,–,–,–
CN(C)C1C(=O)C(C(N)=O)=C(O)C2(O)C(=O)C3=C(O)c4c(O)cccc4C(C)(O)C3C(O)C12 (stereo not shown) [Epioxytetracycline],13.46,0.959,17.43,0.861,–,–,–,–,–
CC[C@H]1OC(=O)[C@H](C)[C@@H](O[C@H]2C[C@@](C)(OC)[C@@H](O)[C@H](C)O2)[C@H](C)[C@@H](O[C@@H]2O[C@H](C)C[C@H](N(C)C)[C@H]2O)[C@](C)(O)C[C@@H](C)C(=O)[C@H](C)[C@@H](O)[C@H]1C [Erythromycin B],4.47,0.792,1.66,0.643,–,–,–,–,–
CCOC(=O)c1c(C)cc(O)cc1O [Ethyl orsellinate],14.45,0.987,11.67,0.817,–,–,–,–,–
CC(=O)OC1CCC2(C)C3=C(CCC2C1(C)C)C1(C)CCC(C(C)CCC=C(C)C)C1(C)CC3 (stereo not shown) [Euphol acetate],13.30,0.956,13.02,0.8,–,–,–,–,–
COc1c2c(cc3c1c(=O)c1ccccc1n3C)OCO2 [Evoxanthine],15.29,0.993,5.42,0.695,–,–,–,–,–
COc1c(Cl)c(O)c(Cl)c(C)c1C(=O)O[C@H]1[C@H](O)C[C@H](O[C@H]2[C@@H](O)CC(=O)O[C@@H]2C)O[C@@H]1C [Flambalactone],13.89,0.967,13.52,0.807,–,–,–,–,–
